Results taken from US20080268069A1, “Mixture having effect of improving insulin resistance, effect of suppressing body weight gain, and effect of preventing and improving fatty liver” (Ryusendo Co., Ltd., priority 2007, published 2008).
“Also recorded” adds a separate entry of the source.

What was measured:
Assay type in all cases: in vivo
Zucker fa/fa rat [1] = assay: 28-day feeding study: dietary intake, body weight gain, organ weights; settings: compared to V group; for suppression of body weight gain: feeding period of 28 days
Description: (§1) The Zucker fa/fa rat is polyphagous and used as an obesity model and also as a hyperinsulinemia or insulin resistance model.
Eight-week old Zucker fa/fa (Obesity model)
Vehicle (V) fa/fa Basic diet
Onion (O) fa/fa Basic diet+5% Onion
(§2) Dietary intake, body weight gain, liver weight, kidney weight, peritesticular fat weight, glucose tolerance test, blood glucose level, serum insulin, total serum cholesterol, serum triglyceride, serum free fatty acid, and serum leptin.
(§3) Significant tests were carried out using the t test. Two-tailed tests were used for the V group, with significance expressed at p<0.05 (*) and p<0.01 (**).

Zucker fa/fa rat [2] = assay: Glucose tolerance test
Description: as §1, §3
Glucose tolerance tests were carried out in each group of rats at the 2nd week (9-week old) and 4th (11-week old) week after the start of experiment. After 16 hours of fasting, each group of rats was forcedly allowed to ingest 2 g/kg body weight of D-glucose, followed by measuring blood glucose level with time.

Zucker fa/fa rat [3] = assay: Serum parameters and blood glucose level at autopsy; settings: compared to V group
Description: as §1, §2, §3
At autopsy, serum insulin and blood glucose level were measured.

## trivalent chromium-nicotinic acid complex [Cr]
Zucker fa/fa rat [1]; 28 days feeding
  weight of kidney: no significant difference
  weight of peritesticular fat: no significant difference
Zucker fa/fa rat [1]
  suppression of body weight gain: no significant difference
Zucker fa/fa rat [1]; listed as trivalent chromium-nicotinic acid complex
  suppression of body weight gain: neither the trivalent chromium-nicotinic acid complex alone nor the onion extract alone had the effect
Zucker fa/fa rat [2]; 2nd and 4th week, after 2 g/kg D-glucose, no time point stated, compared to V group
  blood glucose level in glucose tolerance test: no significant difference
Zucker fa/fa rat [2]; conclusion from glucose tolerance test and serum insulin, 2 to 4 weeks
  effect of improving insulin resistance: neither the trivalent chromium-nicotinic acid complex alone nor the onion extract alone had the effect
Zucker fa/fa rat [3]; at autopsy
  blood glucose level: no significant difference
  serum insulin content: no significant difference
Zucker fa/fa rat [3]
  serum free fatty acid (FFA): No significant difference
  serum leptin: No significant difference
  serum triglyceride (TG): no significant difference; also recorded: tendency of reduction
  total serum cholesterol (TC): No significant difference
